According to patent US7829585B2, “Antifungal agent containing pyridine derivative” (Eisai R&D Management Co., Ltd., priority 2005, dated 2010):
In brackets after ≈: the same amount, converted by molar mass.

Tests used:
[1] = test system: C. albicans E81022 strain; experiment: Experimental systemic Candida infection model in mice; format: in vivo; conditions: female ICR mice, C. albicans E81022 i.v. 4×10^6 cells/mouse; 10 mg/kg peroral, three times every 4 hours; observed until 14 days after infection
Protocol: A standing culture of C. albicans E81022 strain was static cultured for 48 hours at 30° C. in Sabouraud's dextrose agar (SDA), and the recovered fungal cells were suspended in sterilized physiological saline. By counting the fungal number on cytometry plate, the suspension was diluted to 2×10^7 cells/mL with sterilized saline to serve fungal inoculant.
The fungal inoculum was used in the amounts of 0.2 mL to inoculate 4.5 to 5.5 week-old femal ICR mice in the tail vein (4×10^6 cells/mouse).
From 0.5 to 1 hour after fungal inoculation, 0.2 mL of agent solution (dissolved or suspended in sterilized saline containing 6.5% dimethylsulfoxide and 3.5% Tween 80) was administered into the stomach using a peroral probe, three times every 4 hours. The agent concentration was set at 10 mg/kg and the number of animals in one group was 5 animals.
The protective effect was determined by observing life/death until 14 days after infection and calculating the mean survival days.

[2] = test system: A. fumigatus Tsukuba strain; experiment: Anti-Aspergillus activity, MIC measurement (broth dilution, visual inspection); format: cell-based; conditions: RPMI1640, 48 hours at 35° C., read-out: Anti-Aspergillus activity (minimum growth inhibitory concentration, MIC)
Protocol: (§1) For the C. albicans E81022 strain, a fungal suspension from a standing culture 48 hours at 30° C. in a Sabouraud dextrose liquid culture medium (SDB) was diluted 10000-fold with 1.3-times concentrated RPMI1640 medium to prepare a fungal suspension containing 1 to 2×10^4 cells/ml. For the A. fumigatus Tsukuba strain, −80° C. stored strain was diluted 1000-fold with 1.3-times concentrated RPMI1640 medium to prepare a fungal suspension containing 2 to 3×10^3 cells/ml.
(§2) Using a U-shaped bottomed 96-well plates, 8 samples/plate (A to H) of sample dilution solutions were prepared. On the first row was dispensed 240 μl of sterile distilled water, and on the 2nd to 12th row were dispersed 125 μL of 4% dimethylsulfoxide solution. Weighed sample was dissolved in dimethylsulfoxide to prepare a 5 mg/ml solution followed by adding 10 μL of the solutions to the first row of the prepared plates and preparing 12-step serial 2-fold dilutions (125 μL of solution+125 μL of 4% dimethylsulfoxide solution) on the plates.
(§3) The fungal suspension prepared in (1) was used in the amount of 75 μL/well to inoculate the flat-bottomed 96-well plates containing 25 μL/well of the test compound prepared in (2), and a standing culture was carried out aerobically for 48 hours at 35° C.

[3] = test system: C. albicans E81022 strain; experiment: Anti-Candida activity, MIC measurement (broth dilution, visual inspection); format: cell-based; conditions: Candida albicans, E81022STRAIN, C. albicans E81022, RPMI1640, 48 hours at 35° C., read-out: Anti-Candida activity (minimum growth inhibitory concentration, MIC)
Protocol: as §1, §2, §3

MIC [2] [µg/mL]	MIC [3] [µg/mL]	Compound	Mean Survival Days [1] [days]
3.13 (≈ 7.19 µM)	1.56 (≈ 3.58 µM)	COCc1ccc(C(=O)NCc2cc3ccc(OCc4ccccc4F)cc3o2)c(N)n1 [Example 42, 2-Amino-N-(6-(2-fluoro-benzyloxy)-benzofuran-2-ylmethyl)-6-methoxymethyl-nicotinamide]	–
6.25 (≈ 14.4 µM)	0.78 (≈ 1.79 µM)	COCc1ccc(C(=O)NCc2cc3ccc(OCc4cccc(F)c4)cc3o2)c(N)n1 [Example 43, 2-Amino-N-(6-(3-fluoro-benzyloxy)-benzofuran-2-ylmethyl)-6-methoxymethyl-nicotinamide]	–
6.25 (≈ 14.9 µM)	0.78 (≈ 1.86 µM)	COCc1ccc(C(=O)NCc2cc3ccc(OCc4ccccn4)cc3o2)c(N)n1 [Example 44, 2-Amino-6-methoxymethyl-N-(6-(pyridin-2-ylmethoxy)-benzofuran-2-ylmethyl)-nicotinamide]	–
12.5 (≈ 29.9 µM)	12.5 (≈ 29.9 µM)	COCc1ccc(C(=O)NCc2cc3ccc(OCc4cccnc4)cc3o2)c(N)n1 [Example 45, 2-Amino-6-methoxymethyl-N-(6-(pyridin-3-ylmethoxy)-benzofuran-2-ylmethyl)-nicotinamide]	–
6.25 (≈ 15.5 µM)	0.39 (≈ 0.967 µM)	COCc1ccc(C(=O)NCc2cc3ccc(Oc4ccccc4)cc3o2)c(N)n1 [Example 49, 2-Amino-6-methoxymethyl-N-(6-phenoxy-benzofuran-2-ylmethyl)-nicotinamide]	–
0.78 (≈ 2.01 µM)	0.2 (≈ 0.515 µM)	Nc1ccc(C(=O)NCc2cc3cc(OCc4ccccc4)ccc3o2)c(N)n1 [Example 51, 2,6-Diamino-N-(5-benzyloxy-benzofuran-2-ylmethyl)-nicotinamide]	–
0.78 (≈ 2.31 µM)	1.56 (≈ 4.61 µM)	C=CCOc1ccc2oc(CNC(=O)c3ccc(N)nc3N)cc2c1 [Example 52, N-(5-Allyloxy-benzofuran-2-ylmethyl)-2,6-diamino-nicotinamide]	–
6.25 (≈ 17.7 µM)	6.25 (≈ 17.7 µM)	Nc1ccc(C(=O)NCc2cc3cc(OCC4CC4)ccc3o2)c(N)n1 [Example 53, 2,6-Diamino-N-(5-cyclopropylmethoxy-benzofuran-2-ylmethyl)-nicotinamide]	–
1.56 (≈ 4.18 µM)	0.1 (≈ 0.268 µM)	Nc1ncccc1C(=O)NCc1cc2ccc(OCc3ccccc3)cc2o1 [Example 58, 2-Amino-N-(6-benzyloxy-benzofuran-2-ylmethyl)-nicotinamide]	–
3.13 (≈ 7.22 µM)	0.39 (≈ 0.9 µM)	COCc1ccc(C(=O)NCc2cc3ccc(OCc4ccccc4)cc3s2)c(N)n1 [Example 77, 2-Amino-N-(6-benzyloxy-benzo[b]thiophen-2-ylmethyl)-6-methoxymethyl-nicotinamide]	–
1.56 (≈ 3.86 µM)	0.39 (≈ 0.964 µM)	Nc1ccc(C(=O)NCc2cc3ccc(OCc4ccccc4)cc3s2)c(N)n1 [Example 78, 2,6-Diamino-N-(6-benzyloxy-benzo[b]thiohen-2-ylmethyl)-nicotinamide]	–

Second part, the compound before the results:

Compound	MIC [2] [µg/mL]	MIC [3] [µg/mL]	Mean Survival Days [1] [days]
Nc1ccc(C(=O)NCc2cc3ccc(OCc4ccccc4)cc3o2)c(N)n1 [Example 1, 2,6-Diamino-N-(6-benzyloxy-benzofuran-2-ylmethyl)-nicotinamide]	1.56 (≈ 4.02 µM)	0.39 (≈ 1 µM)	9.6
CCOc1ccc2cc(CNC(=O)c3ccc(N)nc3N)oc2c1 [Example 2, 2,6-Diamino-N-(6-ethoxy-benzofuran-2-ylmethyl)-nicotinamide]	3.13 (≈ 9.59 µM)	1.56 (≈ 4.78 µM)	8.6
Nc1ccc(C(=O)NCc2cc3ccc(OCC4CC4)cc3o2)c(N)n1 [Example 3, 2,6-Diamino-N-(6-cyclopropylmethoxy-benzofuran-2-ylmethyl)-nicotinamide]	0.78 (≈ 2.21 µM)	1.56 (≈ 4.43 µM)	8.6
COCc1ccc(C(=O)NCc2cc3ccc(OCc4ccccc4)cc3o2)c(N)n1 [Example 4, 2-Amino-N-(6-benzyloxy-benzofuran-2-ylmethyl)-6-methoxymethyl-nicotinamide]	3.13 (≈ 7.5 µM)	0.78 (≈ 1.87 µM)	10.2
C=CCOc1ccc2cc(CNC(=O)c3ccc(COC)nc3N)oc2c1 [Example 5, N-(6-Allyloxy-benzofuran-2-ylmethyl)-2-amino-6-methoxymethyl-nicotinamide]	0.78 (≈ 2.12 µM)	0.78 (≈ 2.12 µM)	12.8
COCc1ccc(C(=O)NCc2cc3ccc(OCC4CC4)cc3o2)c(N)n1 [Example 6, 2-Amino-N-(6-cyclopropylmethoxy-benzofuran-2-ylmethyl)-6-methoxymethyl-nicotinamide]	1.56 (≈ 4.09 µM)	0.78 (≈ 2.04 µM)	11.4
COCc1ccc(C(=O)NCc2cc3cc(OCc4ccccc4)ccc3o2)c(N)n1 [Example 7, 2-Amino-N-(5-benzyloxy-benzofuran-2-ylmethyl)-6-methoxymethyl-nicotinamide]	1.56 (≈ 3.74 µM)	0.39 (≈ 0.934 µM)	8.8
C=CCOc1ccc2cc(CNC(=O)c3ccc(N)nc3N)oc2c1 [Example 9, N-(6-Allyloxy-benzofuran-2-ylmethyl)-2,6-diamino-nicotinamide]	–	–	9.6
COCc1ccc(C(=O)NCc2cc3ccc(OC)cc3o2)c(N)n1 [Example 24, 2-Amino-N-(6-methoxy-benzofuran-2-ylmethyl)-6-methoxymethyl-nicotinamide]	3.13 (≈ 9.17 µM)	6.25 (≈ 18.3 µM)	–
CCC(C)COc1ccc2cc(CNC(=O)c3ccc(COC)nc3N)oc2c1 (stereo not shown) [Example 29, 2-Amino-6-methoxymethyl-N-(6-(2-methyl-butoxy)-benzofuran-2-ylmethyl)-nicotinamide]	6.25 (≈ 15.7 µM)	1.56 (≈ 3.92 µM)	–
CC=CCOc1ccc2cc(CNC(=O)c3ccc(COC)nc3N)oc2c1 [Example 38, 2-Amino-N-(6-but-2-enyloxy-benzofuran-2-ylmethyl)-6-methoxymethyl-nicotinamide]	0.78 (≈ 2.04 µM)	0.39 (≈ 1.02 µM)	–
C#CCOc1ccc2cc(CNC(=O)c3ccc(COC)nc3N)oc2c1 [Example 39, 2-Amino-6-methoxymethyl-N-(6-prop-2-ynyloxy-benzofuran-2-ylmethyl)-nicotinamide]	1.56 (≈ 4.27 µM)	1.56 (≈ 4.27 µM)	–
COCCOc1ccc2cc(CNC(=O)c3ccc(COC)nc3N)oc2c1 [Example 40, 2-Amino-N-(6-(2-methoxy-ethoxy)-benzofuran-2-ylmethyl)-6-methoxymethyl-nicotinamide]	3.13 (≈ 8.12 µM)	3.13 (≈ 8.12 µM)	–
COCc1ccc2cc(CNC(=O)c3ccc(COC)nc3N)oc2c1 [Example 47, 2-Amino-6-methoxymethyl-N-(6-methoxymethyl-benzofuran-2-ylmethyl)-nicotinamide]	1.56 (≈ 4.39 µM)	0.78 (≈ 2.19 µM)	–
C=CCOc1ccc2oc(CNC(=O)c3ccc(COC)nc3N)cc2c1 [Example 54, N-(5-Allyloxy-benzofuran-2-ylmethyl)-2-amino-6-methoxymethyl-nicotinamide]	0.39 (≈ 1.06 µM)	1.56 (≈ 4.25 µM)	–
CCCCc1ccc2oc(CNC(=O)c3ccc(COC)nc3N)cc2c1 [Example 57, 2-Amino-N-(5-butyl-benzofuran-2-ylmethyl)-6-methoxymethyl-nicotinamide]	1.56 (≈ 4.25 µM)	6.25 (≈ 17 µM)	–
CCOc1ccc2cc(CNC(=O)c3cccnc3N)oc2c1 [Example 59, 2-Amino-N-(6-ethoxy-benzofuran-2-ylmethyl)-nicotinamide]	3.13 (≈ 10.1 µM)	0.78 (≈ 2.51 µM)	–
CCC(C)COc1ccc2cc(CNC(=O)c3cccnc3N)oc2c1 (stereo not shown) [Example 65, 2-Amino-N-(6-(2-methyl-butoxy)-benzofuran-2-ylmethyl)-nicotinamide]	3.13 (≈ 8.86 µM)	1.56 (≈ 4.41 µM)	–
CC=CCOc1ccc2cc(CNC(=O)c3cccnc3N)oc2c1 [Example 69, 2-Amino-N-(6-but-2-enyloxy-benzofuran-2-ylmethyl)-nicotinamide]	0.39 (≈ 1.16 µM)	0.39 (≈ 1.16 µM)	–
C#CCOc1ccc2cc(CNC(=O)c3cccnc3N)oc2c1 [Example 70, 2-Amino-N-(6-prop-2-ynyloxy-benzofuran-2-ylmethyl)-nicotinamide]	1.56 (≈ 4.85 µM)	0.78 (≈ 2.43 µM)	–
Nc1ncccc1C(=O)NCc1cc2ccc(OCC3CC3)cc2o1 [Example 72, 2-Amino-N-(6-cyclopropylmethoxy-benzofuran-2-ylmethyl)-nicotinamide]	1.56 (≈ 4.62 µM)	0.78 (≈ 2.31 µM)	–
